# Columns and labels:
# Type in all cases: functional
# HCT-116 = experiment: Growth inhibition of human HCT116 cells by sulforhodamine B assay
# NCI-H522 = experiment: Growth inhibition of human NCI-H522 cells by sulforhodamine B assay
# NCI-H460 = experiment: Growth inhibition of human NCI-H460 cells by sulforhodamine B assay
# NCI-H226 [1] = experiment: Growth inhibition of human NCI-H226 cells by sulforhodamine B assay
# HOP-62 = experiment: Growth inhibition of human HOP62 cells by sulforhodamine B assay
# A549 = experiment: Growth inhibition of human A549/ATCC cells by sulforhodamine B assay
# SNB-19 = experiment: Growth inhibition of human SNB19 cells assessed as cell growth at 10^-8 M by sulforhodamine B assay; conditions: read-out: Activity
# SF-539 = experiment: Growth inhibition of human SF539 cells assessed as cell growth at 10^-8 M by sulforhodamine B assay; conditions: read-out: Activity
# NCI-H322M = experiment: Growth inhibition of human NCI-H322M cells assessed as cell growth at 10^-8 M by sulforhodamine B assay; conditions: read-out: Activity
# RXF 393 [2] = experiment: Growth inhibition of human RXF393 cells by sulforhodamine B assay
# CAKI-1 = experiment: Growth inhibition of human CAKI-1 cells by sulforhodamine B assay
# A498 [3] = experiment: Growth inhibition of human A498 cells by sulforhodamine B assay
# UACC-62 [4] = experiment: Growth inhibition of human UACC62 cells by sulforhodamine B assay
# SF-295 = experiment: Growth inhibition of human SF295 cells by sulforhodamine B assay
# MDA-MB-231 = experiment: Growth inhibition of human MDA-MB-231 cells assessed as cell growth at 10^-4 M by sulforhodamine B assay; conditions: read-out: Activity
# UO-31 = experiment: Growth inhibition of human UO31 cells assessed as cell growth at 10^-4 M by sulforhodamine B assay; conditions: read-out: Activity
# OVCAR-4 = experiment: Growth inhibition of human OVCAR4 cells assessed as cell growth at 10^-4 M by sulforhodamine B assay; conditions: read-out: Activity
# IGROV-1 = experiment: Growth inhibition of human IGROV1 cells assessed as cell growth at 10^-4 M by sulforhodamine B assay; conditions: read-out: Activity
# UACC-62 [5] = experiment: Growth inhibition of human UACC62 cells assessed as cell growth at 10^-4 M by sulforhodamine B assay; conditions: read-out: Activity
# UACC-257 [6] = experiment: Growth inhibition of human UACC257 cells assessed as cell growth at 10^-4 M by sulforhodamine B assay; conditions: read-out: Activity
# SK-MEL-5 = experiment: Growth inhibition of human SK-MEL-5 cells assessed as cell growth at 10^-4 M by sulforhodamine B assay; conditions: read-out: Activity
# SK-MEL-28 [7] = experiment: Growth inhibition of human SK-MEL-28 cells assessed as cell growth at 10^-4 M by sulforhodamine B assay; conditions: read-out: Activity
# Malme-3M [8] = experiment: Growth inhibition of human MALME-3M cells assessed as cell growth at 10^-4 M by sulforhodamine B assay; conditions: read-out: Activity
# NCI-H226 [9] = experiment: Growth inhibition of human NCI-H226 cells assessed as cell growth at 10^-4 M by sulforhodamine B assay; conditions: read-out: Activity
# SR = experiment: Growth inhibition of human SR cells assessed as cell growth at 10^-4 M by sulforhodamine B assay; conditions: read-out: Activity
# A498 [10] = experiment: Growth inhibition of human A498 cells assessed as cell growth at 10^-6 M by sulforhodamine B assay; conditions: read-out: Activity
# OVCAR-8 = experiment: Growth inhibition of human OVCAR8 cells assessed as cell growth at 10^-6 M by sulforhodamine B assay; conditions: read-out: Activity
# UACC-257 [11] = experiment: Growth inhibition of human UACC257 cells assessed as cell growth at 10^-6 M by sulforhodamine B assay; conditions: read-out: Activity
# MDA-MB-435 = experiment: Growth inhibition of human MDA-MB-435 cells assessed as cell growth at 10^-6 M by sulforhodamine B assay; conditions: read-out: Activity
# Malme-3M [12] = experiment: Growth inhibition of human MALME-3M cells assessed as cell growth at 10^-6 M by sulforhodamine B assay; conditions: read-out: Activity
# HT-29 = experiment: Growth inhibition of human HT-29 cells assessed as cell growth at 10^-6 M by sulforhodamine B assay; conditions: read-out: Activity
# OVCAR-5 = experiment: Growth inhibition of human OVCAR5 cells assessed as cell growth at 10^-7 M by sulforhodamine B assay; conditions: read-out: Activity
# OVCAR-3 = experiment: Growth inhibition of human OVCAR3 cells assessed as cell growth at 10^-7 M by sulforhodamine B assay; conditions: read-out: Activity
# SK-MEL-28 [13] = experiment: Growth inhibition of human SK-MEL-28 cells assessed as cell growth at 10^-7 M by sulforhodamine B assay; conditions: read-out: Activity
# U-251 = experiment: Growth inhibition of human U251 cells assessed as cell growth at 10^-7 M by sulforhodamine B assay; conditions: read-out: Activity
# TK-10 = experiment: Growth inhibition of human TK10 cells assessed as cell growth at 10^-8 M by sulforhodamine B assay; conditions: read-out: Activity
# RXF 393 [14] = experiment: Growth inhibition of human RXF393 cells assessed as cell growth at 10^-8 M by sulforhodamine B assay; conditions: read-out: Activity
# [15] = read-out: LC50 (the source's name)
# [16] = read-out: pLC50 (the source's name) (converted)
smiles,measurement,setting,value
C/C=C(/C)C(=O)O[C@@H]1CC(C)(C)C[C@H]2C3=CC[C@@H]4[C@@]5(C)CCC(=O)C(C)(C)[C@@H]5CC[C@@]4(C)[C@]3(C)CC[C@@]12C(=O)O [LANTADENE A],GI50,HCT-116; read-out: GI50,3.62 µM
same,LC50,HCT-116; read-out: LC50,> 100 µM
same,TGI,HCT-116; read-out: TGI,> 100 µM
same,GI50,HCT-116; read-out: pGI50 (converted),3.63 µM
same,LC50,HCT-116; read-out: pLC50 (converted),> 100 µM
same,TGI,HCT-116; read-out: pTGI (converted),> 100 µM
same,GI50,NCI-H522; read-out: GI50,3.25 µM
same,CC50,NCI-H522; [15],> 100 µM
same,TGI,NCI-H522; read-out: TGI,44.1 µM
same,GI50,NCI-H522; read-out: pGI50 (converted),3.24 µM
same,CC50,NCI-H522; [16],> 100 µM
same,TGI,NCI-H522; read-out: pTGI (converted),43.7 µM
same,GI50,NCI-H460; read-out: GI50,3.59 µM
same,LC50,NCI-H460; read-out: LC50,> 100 µM
same,TGI,NCI-H460; read-out: TGI,> 100 µM
same,GI50,NCI-H460; read-out: pGI50 (converted),3.63 µM
same,LC50,NCI-H460; read-out: pLC50 (converted),> 100 µM
same,TGI,NCI-H460; read-out: pTGI (converted),> 100 µM
same,GI50,NCI-H226 [1]; read-out: GI50,4.71 µM
same,LC50,NCI-H226 [1]; read-out: LC50,> 100 µM
same,TGI,NCI-H226 [1]; read-out: TGI,> 100 µM
same,GI50,NCI-H226 [1]; read-out: pGI50 (converted),4.68 µM
same,LC50,NCI-H226 [1]; read-out: pLC50 (converted),> 100 µM
same,TGI,NCI-H226 [1]; read-out: pTGI (converted),> 100 µM
same,GI50,HOP-62; read-out: GI50,20.6 µM
same,LC50 (concentration killing 50% of cells),HOP-62; read-out: LC50,> 100 µM
same,TGI,HOP-62; read-out: TGI,> 100 µM
same,GI50,HOP-62; read-out: pGI50 (converted),20.4 µM
same,LC50 (concentration killing 50% of cells),HOP-62; read-out: pLC50 (converted),> 100 µM
same,TGI,HOP-62; read-out: pTGI (converted),> 100 µM
same,GI50,A549; read-out: GI50,2.84 µM
same,CC50,A549; [15],> 100 µM
same,TGI,A549; read-out: TGI,> 100 µM
same,GI50,A549; read-out: pGI50 (converted),2.82 µM
same,CC50,A549; [16],> 100 µM
same,TGI,A549; read-out: pTGI (converted),> 100 µM
same,growth at 0.01 µM,SNB-19,93%
same,growth at 0.01 µM,SF-539,102%
same,growth at 0.01 µM,NCI-H322M,99%
same,GI50,RXF 393 [2]; read-out: GI50,2.41 µM
same,CC50,RXF 393 [2]; [15],> 100 µM
same,TGI,RXF 393 [2]; read-out: TGI,9.93 µM
same,GI50,RXF 393 [2]; read-out: pGI50 (converted),2.4 µM
same,CC50,RXF 393 [2]; [16],> 100 µM
same,TGI,RXF 393 [2]; read-out: pTGI (converted),10 µM
same,GI50,CAKI-1; read-out: GI50,3.93 µM
same,CC50,CAKI-1; [15],> 100 µM
same,TGI,CAKI-1; read-out: TGI,> 100 µM
same,GI50,CAKI-1; read-out: pGI50 (converted),3.89 µM
same,CC50,CAKI-1; [16],> 100 µM
same,TGI,CAKI-1; read-out: pTGI (converted),> 100 µM
same,GI50,A498 [3]; read-out: GI50,2.06 µM
same,CC50,A498 [3]; [15],> 100 µM
same,TGI,A498 [3]; read-out: TGI,11.6 µM
same,GI50,A498 [3]; read-out: pGI50 (converted),2.04 µM
same,CC50,A498 [3]; [16],> 100 µM
same,TGI,A498 [3]; read-out: pTGI (converted),11.7 µM
same,GI50,UACC-62 [4]; read-out: GI50,1.73 µM
same,CC50,UACC-62 [4]; [15],43 µM
same,TGI,UACC-62 [4]; read-out: TGI,6.56 µM
same,GI50,UACC-62 [4]; read-out: pGI50 (converted),1.74 µM
same,CC50,UACC-62 [4]; [16],42.7 µM
same,TGI,UACC-62 [4]; read-out: pTGI (converted),6.61 µM
same,GI50,SF-295; read-out: GI50,2.77 µM
same,CC50,SF-295; [15],> 100 µM
same,TGI,SF-295; read-out: TGI,15.4 µM
same,GI50,SF-295; read-out: pGI50 (converted),2.75 µM
same,CC50,SF-295; [16],> 100 µM
same,TGI,SF-295; read-out: pTGI (converted),15.5 µM
same,growth at 100 µM,MDA-MB-231,-26%
same,growth at 100 µM,UO-31,6%
same,growth at 100 µM,OVCAR-4,29%
same,growth at 100 µM,IGROV-1,30%
same,growth at 100 µM,UACC-62 [5],-70%
same,growth at 100 µM,UACC-257 [6],21%
same,growth at 100 µM,SK-MEL-5,-46%
same,growth at 100 µM,SK-MEL-28 [7],42%
same,growth at 100 µM,Malme-3M [8],17%
same,growth at 100 µM,NCI-H226 [9],20%
same,growth at 100 µM,SR,12%
same,growth at 1 µM,A498 [10],72%
same,growth at 1 µM,OVCAR-8,95%
same,growth at 1 µM,UACC-257 [11],91%
same,growth at 1 µM,MDA-MB-435,90%
same,growth at 1 µM,Malme-3M [12],91%
same,growth at 1 µM,HT-29,85%
same,growth at 0.1 µM,OVCAR-5,100%
same,growth at 0.1 µM,OVCAR-3,109%
same,growth at 0.1 µM,SK-MEL-28 [13],95%
same,growth at 0.1 µM,U-251,94%
same,growth at 0.01 µM,TK-10,99%
same,growth at 0.01 µM,RXF 393 [14],95%

# Reference: ChEMBL document CHEMBL2413072, “Synthesis and in vitro anticancer studies of novel C-2 arylidene congeners of lantadenes” (2013)
